Tested on: CYP3A
Test: 4β-hydroxycholesterol/cholesterol ratio as endogenous marker of CYP3A
Type: in vivo, human
Settings: MAD, doses up to 750 mg BID
Description: The primary objective of study 2 was to determine the safety and tolerability of MAD of orally administered IR and MR formulations of PF-06650833 after a standard meal in healthy adult subjects. The secondary objective was to evaluate the plasma and urine PK profiles of PF-06650833 after repeat dosing. Exploratory objectives were to assess the effects of PF-06650833 on exploratory biomarkers of PD activity, including high-sensitivity C-reactive protein (hsCRP), and to evaluate cholesterol/hydroxycholesterol ratios as an endogenous marker for cytochrome P450 3A (CYP3A) induction or inhibition.
For both studies, samples of blood (and urine in study 2) were taken for evaluation of PK/PD parameters (see Additional file 1: Supplemental Methods). […] Plasma and urine samples were analyzed using validated, sensitive, and specific liquid chromatography tandem mass spectrometric methods (at Pfizer Inc., Groton, CT, USA, for study 1 and at Worldwide Pharmacokinetics, Dynamics and Metabolism, Cambridge, MA, USA, for study 2). The lower limit of quantification for PF-06650833 in plasma was 0.0500 ng/mL. The lower limit of quantification for PF-06650833 in urine was 1.00 ng/mL. Serum samples were also analyzed for hsCRP, and plasma samples were analyzed for 4β-hydroxycholesterol and cholesterol. […]
35 Plasma samples were analyzed using a validated, sensitive , and specific liquid […]

## CC[C@@H]1[C@H](F)C(=O)N[C@@H]1COc1nccc2cc(C(N)=O)c(OC)cc12 [PF-06650833, 1-{[(2S,3S,4S)-3-Ethyl-4-fluoro-5-oxopyrrolidin-2-yl]methoxy}-7-methoxyisoquinoline-6-carboxamide]
  CYP3A induction or inhibition based on cholesterol/hydroxycholesterol ratio: no apparent trend for CYP3A induction or inhibition

— paper PMC6896740, “Safety, tolerability, pharmacokinetics, and pharmacodynamics of PF-06650833, a selective interleukin-1 receptor-associated kinase 4 (IRAK4) inhibitor, in single and multiple ascending dose randomized phase 1 studies in healthy subjects” (Arthritis Research & Therapy, 2019)
